Results as given in patent US7323118B2, “Composition of hypochlorous acid and its applications” (Aquilabs S.A., priority 2001, dated 2008).

Key:
Assay in all cases: Cultures and tests of inhibition (culture agar, Petri box)
Type in all cases: cell-based
Conditions in all cases: added to the culture agar; inhibition haloes in the Petri box
pseudomona = test system: pseudomona
staphylococcus aureus = test system: staphylococcus aureus
E. Coli = test system: E. Coli

Measured: inhibition of growth

OCl [Hypochlorous acid]
full inhibition: all assays above
